In patent US7612200B2, “Inhibitors of protein kinases” (Locus Pharmaceuticals, Inc., priority 2004, dated 2009):

Legend:
Format in all cases: biochemical
[1] = molecular target: Lck (Homo sapiens, UniProt P06239); assay: Kinase activity at ATP Km,app, Lck; conditions: 40 min, compound 2 μM
Description: (§1) Lck Kinase Activity: In a final reaction volume of 25 ml, Lck (h) (5-10 mU) is incubated with 50 mM Tris pH 7.5, 0.1 mM EGTA, 0.1 mM Na3VO4, 250 μM KVEKIGEGTYGVVYK (Cdc2 peptide), 10 mM MgAcetate and [γ-^33P-ATP] (specific activity approx. 500 cpm/pmol, concentration as required). The reaction is initiated by the addition of the MgATP mix. After incubation for 40 minutes at room temperature, the reaction is stopped by the addition of 5 μl of a 3% phosphoric acid solution. 10 μl of the reaction is then spotted onto a P30 filtermat and washed three times for 5 minutes in 75 mM phosphoric acid and once in methanol prior to drying and scintillation counting.

[2] = molecular target: c-MET (Homo sapiens, UniProt P08581); assay: Kinase activity at ATP Km,app, c-MET; conditions: compound 2 μM
Description: (§2) Met Kinase Activity: In a final reaction volume of 25 μl, Met (h) (5-10 mU) is incubated with 8 mM MOPS pH 7.0, 0.2 mM EDTA, 250 μM KKKSPEGYVNIEFG, 10 mM MgAcetate and [γ-^33P-ATP] (specific activity approx. 500 cpm/pmol, concentration as required). The reaction is initiated by the addition of the MgATP mix. After incubation for 40 minutes at room temperature, the reaction is stopped by the addition of 5 μl of a 3% phosphoric acid solution. 10 μl of the reaction is then spotted onto a P30 filtermat and washed three times for 5 minutes in 75 mM phosphoric acid and once in methanol prior to drying and scintillation counting.

[3] = molecular target: GSK3-beta (Homo sapiens, UniProt P49841); assay: Kinase activity at ATP Km,app, GSK3-beta; conditions: 40 min, compound 2 μM
Description: as §2, with “GSK3β Kinase” for “Met Kinase”, “μl, GSK3β” for “μl, Met”, “[…]” for “8 mM”, “EDTA,[…](p)EDEEE (phosphor GS2 peptide),” for “EDTA, 250 μM KKKSPEGYVNIEFG,”, “in 50” for “in 75”

[4] = molecular target: T1, EphB4 (Homo sapiens, UniProt P54760); assay: Kinase activity at ATP Km,app, EphB4; conditions: 40 min, compound 2 μM
T1 sequence (P54760 16-987): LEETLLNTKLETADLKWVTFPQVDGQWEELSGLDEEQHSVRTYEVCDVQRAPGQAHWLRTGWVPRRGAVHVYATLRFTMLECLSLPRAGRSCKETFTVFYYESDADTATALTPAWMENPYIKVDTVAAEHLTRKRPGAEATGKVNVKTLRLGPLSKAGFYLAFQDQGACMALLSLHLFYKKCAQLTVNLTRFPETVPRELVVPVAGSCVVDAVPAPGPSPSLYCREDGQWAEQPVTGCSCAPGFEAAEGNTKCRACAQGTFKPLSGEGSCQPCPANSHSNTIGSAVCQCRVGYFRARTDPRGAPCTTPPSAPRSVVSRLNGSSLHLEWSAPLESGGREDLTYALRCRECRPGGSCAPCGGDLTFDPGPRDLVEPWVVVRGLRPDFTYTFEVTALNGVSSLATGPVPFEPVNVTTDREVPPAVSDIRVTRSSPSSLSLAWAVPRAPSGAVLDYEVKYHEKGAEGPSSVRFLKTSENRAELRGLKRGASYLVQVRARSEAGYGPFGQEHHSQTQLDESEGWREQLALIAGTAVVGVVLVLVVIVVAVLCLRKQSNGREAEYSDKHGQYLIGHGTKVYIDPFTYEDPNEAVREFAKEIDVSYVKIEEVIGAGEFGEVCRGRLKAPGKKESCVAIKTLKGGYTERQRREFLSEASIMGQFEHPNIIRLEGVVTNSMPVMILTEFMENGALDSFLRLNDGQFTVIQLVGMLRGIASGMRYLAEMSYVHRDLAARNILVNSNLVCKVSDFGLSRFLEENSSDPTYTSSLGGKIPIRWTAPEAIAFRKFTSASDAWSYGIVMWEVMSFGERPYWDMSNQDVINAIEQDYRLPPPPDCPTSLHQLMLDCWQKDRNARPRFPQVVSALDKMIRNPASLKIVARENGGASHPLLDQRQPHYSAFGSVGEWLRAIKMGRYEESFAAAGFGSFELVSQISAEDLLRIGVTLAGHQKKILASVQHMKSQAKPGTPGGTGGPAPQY
Description: as §2, with “EphB4” for “Met”, “10 mM MnCl2, 0.1 mg/ml poly(Glue, Tyr) 4:1,” for “250 μM KKKSPEGYVNIEFG,”, “incubatin” for “incubation”, “Filtermat A” for “P30 filtermat”, “scintillating” for “scintillation”

[5] = molecular target: IGF1R (Homo sapiens, UniProt P08069); assay: Kinase activity at ATP Km,app, IGF1R; conditions: 40 min, compound 2 μM
Description: as §1, with “IGF-1R” for “Lck”, “Activity” for “Activity:”, “μl, IGF-1R” for “ml, Lck”, “Na3VO4, 0.1% β-mercaptoethanol,” for “Na3VO4,”, “KKKSPEGYVNIEFG, 10 mM MnCl2,” for “KVEKIGEGTYGVVYK (Cdc2 peptide),”

Chain of Lck (P06239 whole entry): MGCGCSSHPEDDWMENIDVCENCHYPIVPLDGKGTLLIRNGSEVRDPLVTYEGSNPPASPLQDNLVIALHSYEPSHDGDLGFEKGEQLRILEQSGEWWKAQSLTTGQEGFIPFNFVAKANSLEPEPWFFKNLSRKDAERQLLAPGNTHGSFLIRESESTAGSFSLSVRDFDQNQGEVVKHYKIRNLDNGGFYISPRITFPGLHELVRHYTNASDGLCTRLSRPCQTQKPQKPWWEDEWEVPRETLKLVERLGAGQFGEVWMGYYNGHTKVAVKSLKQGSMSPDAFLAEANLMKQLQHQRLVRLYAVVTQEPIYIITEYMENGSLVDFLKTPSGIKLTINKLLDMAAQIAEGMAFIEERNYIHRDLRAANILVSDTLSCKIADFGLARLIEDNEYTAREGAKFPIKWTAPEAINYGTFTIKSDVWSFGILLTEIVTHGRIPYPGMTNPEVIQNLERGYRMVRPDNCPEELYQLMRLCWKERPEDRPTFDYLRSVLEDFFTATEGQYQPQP
Chain of IGF1R (P08069 31-1367): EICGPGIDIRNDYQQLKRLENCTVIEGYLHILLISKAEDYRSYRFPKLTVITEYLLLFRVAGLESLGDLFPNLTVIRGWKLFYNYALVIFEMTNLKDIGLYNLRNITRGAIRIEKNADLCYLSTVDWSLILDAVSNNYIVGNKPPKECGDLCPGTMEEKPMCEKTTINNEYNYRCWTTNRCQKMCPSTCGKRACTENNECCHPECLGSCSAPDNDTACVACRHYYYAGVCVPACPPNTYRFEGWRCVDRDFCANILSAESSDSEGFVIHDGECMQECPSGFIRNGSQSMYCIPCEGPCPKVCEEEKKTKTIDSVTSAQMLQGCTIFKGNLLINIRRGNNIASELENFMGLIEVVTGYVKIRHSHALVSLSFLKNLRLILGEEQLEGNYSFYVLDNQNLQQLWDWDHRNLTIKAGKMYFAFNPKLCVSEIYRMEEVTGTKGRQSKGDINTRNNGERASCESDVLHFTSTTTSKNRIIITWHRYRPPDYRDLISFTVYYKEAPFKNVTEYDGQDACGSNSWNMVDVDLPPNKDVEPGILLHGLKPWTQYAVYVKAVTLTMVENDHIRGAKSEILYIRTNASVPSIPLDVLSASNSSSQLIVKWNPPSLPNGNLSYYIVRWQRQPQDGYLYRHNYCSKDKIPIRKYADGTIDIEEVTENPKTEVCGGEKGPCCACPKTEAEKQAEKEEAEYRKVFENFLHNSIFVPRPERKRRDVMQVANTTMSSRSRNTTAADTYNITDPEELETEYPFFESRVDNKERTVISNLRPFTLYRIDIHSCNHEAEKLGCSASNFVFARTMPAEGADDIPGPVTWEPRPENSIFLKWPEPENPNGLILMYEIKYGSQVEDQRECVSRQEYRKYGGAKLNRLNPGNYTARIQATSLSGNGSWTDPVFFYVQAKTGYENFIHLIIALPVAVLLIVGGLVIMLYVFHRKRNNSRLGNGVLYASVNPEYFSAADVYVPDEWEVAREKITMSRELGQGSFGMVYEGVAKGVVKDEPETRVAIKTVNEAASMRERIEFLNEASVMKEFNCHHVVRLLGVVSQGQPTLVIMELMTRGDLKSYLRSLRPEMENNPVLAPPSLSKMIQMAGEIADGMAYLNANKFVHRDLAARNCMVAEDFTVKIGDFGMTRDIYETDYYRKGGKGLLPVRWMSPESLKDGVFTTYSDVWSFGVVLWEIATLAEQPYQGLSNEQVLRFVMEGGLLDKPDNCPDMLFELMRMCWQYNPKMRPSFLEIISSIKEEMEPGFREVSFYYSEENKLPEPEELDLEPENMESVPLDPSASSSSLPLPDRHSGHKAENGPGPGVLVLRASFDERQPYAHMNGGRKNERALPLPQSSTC
Chain of GSK3-beta (P49841 whole entry): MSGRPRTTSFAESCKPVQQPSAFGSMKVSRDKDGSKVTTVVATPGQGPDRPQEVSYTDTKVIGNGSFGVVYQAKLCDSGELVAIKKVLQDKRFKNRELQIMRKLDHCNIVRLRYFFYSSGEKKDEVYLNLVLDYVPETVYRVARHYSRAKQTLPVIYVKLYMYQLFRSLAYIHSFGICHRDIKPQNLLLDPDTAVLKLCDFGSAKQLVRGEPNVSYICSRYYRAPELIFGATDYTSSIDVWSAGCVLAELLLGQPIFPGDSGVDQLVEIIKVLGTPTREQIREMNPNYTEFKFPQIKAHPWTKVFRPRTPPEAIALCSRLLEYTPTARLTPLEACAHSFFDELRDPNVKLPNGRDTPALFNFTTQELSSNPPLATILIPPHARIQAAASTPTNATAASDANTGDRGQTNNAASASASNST
Chain of c-MET (P08581 25-1390): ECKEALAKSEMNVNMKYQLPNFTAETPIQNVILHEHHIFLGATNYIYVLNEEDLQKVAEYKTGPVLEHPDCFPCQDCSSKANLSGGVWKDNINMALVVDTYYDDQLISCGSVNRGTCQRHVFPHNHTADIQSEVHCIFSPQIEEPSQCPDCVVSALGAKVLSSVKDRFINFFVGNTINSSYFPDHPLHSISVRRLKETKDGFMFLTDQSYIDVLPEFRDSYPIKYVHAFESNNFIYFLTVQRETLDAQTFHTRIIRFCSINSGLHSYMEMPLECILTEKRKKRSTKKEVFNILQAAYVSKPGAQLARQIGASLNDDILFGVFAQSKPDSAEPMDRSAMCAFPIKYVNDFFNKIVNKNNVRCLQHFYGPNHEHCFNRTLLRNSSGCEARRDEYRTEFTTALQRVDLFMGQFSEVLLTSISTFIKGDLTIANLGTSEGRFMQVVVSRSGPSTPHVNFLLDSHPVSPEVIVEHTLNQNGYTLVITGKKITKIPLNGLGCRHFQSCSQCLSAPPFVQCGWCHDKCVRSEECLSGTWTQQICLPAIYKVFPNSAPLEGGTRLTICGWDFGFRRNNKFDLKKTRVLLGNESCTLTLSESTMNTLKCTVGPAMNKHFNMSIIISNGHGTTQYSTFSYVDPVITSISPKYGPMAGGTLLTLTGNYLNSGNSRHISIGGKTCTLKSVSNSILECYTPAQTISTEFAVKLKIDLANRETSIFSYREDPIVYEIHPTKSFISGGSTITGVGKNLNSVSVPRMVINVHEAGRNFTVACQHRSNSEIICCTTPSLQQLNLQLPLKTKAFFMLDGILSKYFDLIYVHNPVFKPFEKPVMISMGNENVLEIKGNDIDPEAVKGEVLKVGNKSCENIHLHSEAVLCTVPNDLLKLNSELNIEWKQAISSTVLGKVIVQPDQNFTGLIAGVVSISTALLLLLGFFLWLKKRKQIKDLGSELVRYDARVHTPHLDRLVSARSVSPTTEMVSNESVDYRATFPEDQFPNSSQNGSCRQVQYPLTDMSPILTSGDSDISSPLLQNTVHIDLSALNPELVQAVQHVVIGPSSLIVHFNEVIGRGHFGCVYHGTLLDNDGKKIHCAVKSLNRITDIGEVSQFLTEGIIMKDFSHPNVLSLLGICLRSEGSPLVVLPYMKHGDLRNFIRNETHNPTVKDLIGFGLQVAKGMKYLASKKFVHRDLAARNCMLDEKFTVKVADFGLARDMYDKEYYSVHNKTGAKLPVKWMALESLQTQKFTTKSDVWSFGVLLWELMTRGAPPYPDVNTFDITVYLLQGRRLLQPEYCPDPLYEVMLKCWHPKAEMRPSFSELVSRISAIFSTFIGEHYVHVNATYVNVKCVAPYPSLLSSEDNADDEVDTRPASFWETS

inhibition at 2 µM [1] [%] | % Inhibition at ATP Km,app [2] | inhibition at 2 µM [3] [%] | inhibition at 2 µM [4] [%] | inhibition at 2 µM [5] [%] | SMILES
0 to 25 | 0-25% | 0 to 25 | 76 to 100 | 0 to 25 | CC(C)(C)c1cc(C(=O)N2CCNS(=O)(=O)CC2)c(NC(=O)Nc2ccc(Oc3ccncc3)cc2)s1 [Example 1, 1-(5-tert-Butyl-3-(1,1-dioxo-1λ^6-[1,2,5]thiadiazepane-5-carbonyl)thiophen-2-yl)-3-(4-(pyridin-4-yloxy)phenyl)urea]
0 to 25 | 0-25% | 0 to 25 | 76 to 100 | 0 to 25 | CC(C)(C)c1cc(C(=O)N2CCNC(=O)CC2)c(NC(=O)Nc2ccc(Oc3ccncc3)cc2)s1 [Example 4, 1-(5-tert-Butyl-3-(5-oxo-[1,4]diazepane-1-carbonyl)thiophen-2-yl)-3-(4-(pyridin-4-yloxy)phenyl)urea]
0 to 25 | 26-50% | 0 to 25 | 76 to 100 | 0 to 25 | CC(C)(C)c1cc(C(=O)N2CCNC(=O)C2)c(NC(=O)Nc2ccc(Oc3ccncc3)cc2)s1 [Example 2, 1-(5-tert-Butyl-3-(3-oxo-piperazine-1-carbonyl)thiophen-2-yl)-3-(4-(pyridin-4-yloxy)phenyl)urea]
